Assay results as given in US20260109721A1, “IONIZABLE CATIONIC LIPIDS INCORPORATING SILICON: SYNTHESIS AND LNP FORMULATION” (priority 2023, published 2026).

What was measured:
[1] = LNP size, PDI and zeta potential by Dynamic Light Scattering (Method A); format: physicochemical; settings: LNP formulated with the lipid, DLS
Summary of the method: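 Dynamic light scattering gave size, polydispersity and zeta potential of Method A nanoparticles. These were made from Luc mRNA in 10 mM citrate pH 4.0 combined with ethanol lipid master mix plus ionizable lipid on a dean-type chip (3:1, TFR around 12 ml/min).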

[2] = Encapsulation efficiency of loaded LNPs, RiboGreen RNA assay (Method A); format: physicochemical; settings: encapsulation efficiency of mRNA-loaded LNP, Method A, RiboGreen
Summary of the method: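 Encapsulation determined by RiboGreen fluorescence (excitation 480, emission 525) comparing Triton X-100–lysed and intact LNP wells, duplicates, after 10 min at 37° C and cooling to room temperature. Sample stocks ~4-7 μg/mL RNA in TE buffer; concentration from RNA standard curve.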

| Compound | PDI [1] | Size (nm) [1] [nm] | Zeta potential (mV) [1] [mV] | EE (%) [2] [%] |
| --- | --- | --- | --- | --- |
| CCCCCCCC/C=C\CCCCCCCCOC(=O)C(C)(C)CC(OCCCCCCCC/C=C\CCCCCCCC)O[Si](C)(C)OCCCCCCN(C)CC(O)CO (stereo not drawn) [Example 92, (Z)-octadec-9-en-1-yl 1,2-dihydroxy-4,12,12,16,16-pentamethyl-14-(((Z)-octadec-9-en-1-yl)oxy)-11,13-dioxa-4-aza-12-silaheptadecan-17-oate] | 0.23 | 85.81 | −12.56 | 89 |
| CCCCCCCC/C=C\CCCCCCCCOC(=O)C(C)(C)CC(OCCCCCCCC/C=C\CCCCCCCC)O[Si](C)(C)OCCCCCCN(C)CCO (stereo not drawn) [Example 93, (Z)-octadec-9-en-1-yl 1-hydroxy-3,11,11,15,15-pentamethyl-13-(((Z)-octadec-9-en-1-yl)oxy)-10,12-dioxa-3-aza-11-silahexadecan-16-oate] | 0.15 | 82.7 | −14.61 | 88 |
| CCCCCCCC/C=C\CCCCCCCCOC(=O)C(C)(C)CCC(OCCCCCCCC/C=C\CCCCCCCC)O[Si](C)(C)OCCCCCCN(CCO)CCO (stereo not drawn) [Example 94, (Z)-octadec-9-en-1-yl 1-hydroxy-3-(2-hydroxyethyl)-11,11,16,16-tetramethyl-13-(((Z)-octadec-9-en-1-yl)oxy)-10,12-dioxa-3-aza-11-silaheptadecan-17-oate] | 0.24 | 93.8 | −12.89 | 86 |
| CCCCCCCC/C=C\CCCCCCCCOC(=O)C(C)(C)CCC(OCCCCCCCC/C=C\CCCCCCCC)O[Si](C)(C)OCCCCCCN1CCOCC1 (stereo not drawn) [Example 95, (Z)-octadec-9-en-1-yl 5-((dimethyl((6-morpholinohexyl)oxy)silyl)oxy)-2,2-dimethyl-5-(((Z)-octadec-9-en-1-yl)oxy)pentanoate] | 0.15 | 90.33 | −20.80 | 88 |
| CCCCCCCC/C=C\CCCCCCCCOC(=O)C(C)(C)CC(OCCCCCCCC/C=C\CCCCCCCC)O[Si](C)(C)OCCCCCCN(CCO)CCN(CCO)CCCCCCO[Si](C)(C)OC(CC(C)(C)C(=O)OCCCCCCCC/C=C\CCCCCCCC)OCCCCCCCC/C=C\CCCCCCCC (stereo not drawn) [Example 96, di((Z)-octadec-9-en-1-yl) 14,17-bis(2-hydroxyethyl)-2,2,6,6,25,25,29,29-octamethyl-4,27-bis(((Z)-octadec-9-en-1-yl)oxy)-5,7,24,26-tetraoxa-14,17-diaza-6,25-disilatriacontanedioate] | 0.14 | 81.42 | −17.77 | 89 |
| C#CCN(C)CCCCCCO[Si](C)(C)OC(CC(C)(C)C(=O)OCCCCCCCC/C=C\CCCCCCCC)OCCCCCCCC/C=C\CCCCCCCC (stereo not drawn) [Example 97, (Z)-octadec-9-en-1-yl 4,12,12,16,16-pentamethyl-14-(((Z)-octadec-9-en-1-yl)oxy)-11,13-dioxa-4-aza-12-silaheptadec-1-yn-17-oate] | 0.26 | 101.9 | −22.01 | 86 |
| CCCCCCCCCCCOC(=O)CCCCCN(CCO)CCCCCCCC(=O)OC(CCCCCCCC)CCCCCCCC [SM-102, reference compound] | – | 77.03 | −5.03 | 88 |
